# From patent US20130040908A1, “SUBSTITUTION DERIVATIVES OF N6-BENZYLADENOSINE-5' -MONOPHOSPHATE, METHODS OF PREPARATION THEREOF, USE THEREOF AS MEDICAMENTS, AND THERAPEUTIC PREPARATIONS CONTAINING THESE COMPOUNDS” (BIOAPEX, S.R.O., priority 2010, published 2013)
# Assays:
# Leukemia cell line CEM = test: Flow cytometry of DNA fragmentation (sub-G1) in CEM cells; type: cell-based; details: IC50, triple IC50 and fivefold IC50
# Description: One of the hallmarks of apoptosis is fragmentation of DNA. It can be measured by flowcytometry of the cells stained with propidium iodide. Because the fragmentation results in a loss of a fraction of the nuclear DNA, apoptotic cells have a lower DNA content than cells in G1 phase of cell cycle and can be detected as a subG1 peak in the histogram.
# Leukemia cell line CEM was cultured in cell culture medium (DMEM containing 5 g/l glucose, 2 mM glutamine, 100 U/ml peniciline, 100 μg/ml streptomycine, 10% fetal calf serum and sodium bicarbonate). 24 hours before treatment, cell suspensions were centrifuged, diluted with fresh medium to concentration of 100000 cells per ml with fresh medium and pipetted in 10 ml aliquotes Petri dishes. After an incubation for a given time period, the cells were collected by centrifugation (4° C., 600 g), washed with PBS (4° C.) and fixed with 70% ethanol at −20° C. overnight. Low molecular weight DNA fragmentse were extracted with citrate buffer (11.36 g trisodium citrate dihydrate/1). The nuclei were stained with the solution of propidium iodide in PBS (10 μg/ml) containing RNase A (60 IU per sample). After 1 hour incubation the samples were analyzed by flowcytometry (excitation 488 nm, emission above 620 nm).
# caspase-3 = test: Caspase-3 activity in CEM cells (Apo-ONE kit); type: cell-based; details: 10 μM, 12 and 24 hours
# Description: In the course of apoptosis, caspase cascade is activated. Caspase-3 is an effector caspase that plays a role in the induction of some changes typical for apoptosis (chromatin condensation, DNA fragmentation). Leukemia cell line CEM was cultured in cell culture medium (DMEM containing 5 g/l glucose, 2 mM glutamine, 100 U/ml peniciline, 100 μg/ml streptomycine, 10% fetal calf serum and sodium bicarbonate). 24 hours before treatment, cell suspensions were centrifuged, diluted to concentration of 500000 cells per ml with fresh medium and pipetted in 50 μl, aliquotes into 96-well plate. After 12 and 24 hours of incubation with the test compound, the activity of caspase-3 was measured using commercial kit (Apo-ONE, Promega) that is based on quantification of hydrolysis of fluorogenic substrate Z-DEVD-R110 (excitation 480 nm/emission 520 nm). Reaction specificity was confirmed in a control experiment, when both test compound and caspase-3 inhibitor Ac-DEVD-CHO were added. All experiments were done in triplicate.
# P388D1 leukemia = test: In vivo anticancer activity, survival model of P388D1 leukemia; details: oral 250 mg/kg twice daily
# Description: Screening of biological activity of compound 21 was performed on survival model of P388D1 leukemia transplanted intraperitoneally with 2.10^5 cells. DBA-2 mice were used as a host. One day following the leukemia transplantation, treatment with 21 was initiated. The drug was given orally by gastric gavages in total volume of 200 μl/dose twice daily at dose 250 mg/kg in two chemotherapy cycles (Days 1-3 and 7-9). The compound 21 was solubilized in 5% […], 30% polyethylene glycol 400, 65% tartar buffer (pH 3.0). Survival analysis of treated animals (10 mice/group) was preformed in comparison with vehicle treated mice using Kaplan-Meier method and the significance was evaluated by the log-rank test. Body weight of experimental animals was evaluated in parallel in order to reflect toxicity and efficacy of therapy. Comparative analysis of body weight was performed using non-parametric t-test.
# Human lymphocytes = test: Immunosuppressive activity, 3H-thymidine incorporation in concanavalin A activated lymphocytes; type: cell-based; details: 72 hours, [3H]-TdR
# Description: One of the most important parameters of specific cellular immunity is the proliferative response of lymphocytes to antigens or polyclonal mitogens. The majority of normal mammalian peripheral lymphocytes comprise resting cells. Antigens or nonspecific polyclonal mitogens have the capacity to activate lymphoid cells and this is accompanied by dramatic changes of intracellular metabolism (mitochondrial activity, protein synthesis, nucleic acids synthesis, formation of blastic cells and cellular proliferation). […] Variety of in vitro assays was developed to measure proliferative response of lymphocytes. The most commonly used is ^3H-thymidine incorporation method.
# During cell proliferation, DNA has to be replicated before the cell is divided into two daughter cells. This close association between cell doublings and DNA synthesis is very attractive for assessing cell proliferation. If labelled DNA precursors are added to the cell culture, cells that are about to divide incorporate the labelled nucleotide into their DNA. Traditionally, those assays usually involve the use of radiolabelled nucleosides, particularly tritiated thymidine ([^3H]-TdR). The amount of [^3H]-TdR incorporated into the cellular DNA is quantified by liquid scintillation counting. Human heparinized peripheral blood was obtained from healthy volunteers by cubital vein punction. The blood was diluted in PBS (1:3) and mononuclear cells were separated by centrifugation in Ficoll-Hypaque density gradient (Pharmacia, 1.077 g/ml) at 2200 rpm for 30 minutes. Following centrifugation, lymphocytes were washed in PBS and resuspended in cell culture medium (RMPI 1640, 2 mM glutamine, 100 U/ml penicillin, 100 μg/ml streptomycin, 10% fetal calf serum and sodium bicarbonate).
# The cells were diluted at target density of 1.100.000 cells/ml and were added by pipette (180 μl) into 96-well microtiter plates. Four-fold dilutions of the intended test concentration were added at time zero in 20 μl aliquots to the microtiter plate wells. Usually, test compound was evaluated at six 4-fold dilutions. In routine testing, the highest well concentration was 266.7 μM. All drug concentrations were examined in duplicates. All wells with exception of unstimulated controls were activated with 50 of concanavalin A (25 μg/ml). Incubations of cells with test compounds lasted for 72 hours at 37° C., in 5% CO2 atmosphere and 100% humidity. At the end of incubation period, the cells were assayed by using the [^3H]-TdR:
# Cell cultures were incubated with 0.5 μCi (20 μl of stock solution 500 μCi/ml per well for 6 hours at 37° C. and 5% CO2. The automated cell harvester was used to lyse cells in water and adsorb the DNA onto glass-fiber filters in the format of microtiter plate. The DNA incorporated [^3H]-TdR was retained on the filter while unincorporated material passes through. The filters were dried at room temperature overnight, sealed into a sample bag with 10-12 ml of scintillant. The amount of [^3H]-TdR present in each filter (in cpm) was determined by scintillation counting in a Betaplate liquid scintillation counter. The effective dose of immunosuppressant (ED) was calculated using the following equation: ED=(CCPMdrug exposed well/mean CCPMcontrol wells)×100%. The ED50 value, the drug concentration inhibiting proliferation of 50% of lymphocytes, was calculated from the obtained dose response curves.
# p21^WAF-1 = test: p21WAF-1 induction in MCF-7 cells (immunoblot); type: cell-based; details: MCF-7, 0-100 μM 12 hours; 1 μM 0.5-24 hours
# Description: MCF-7 cells cultured at 37° C. in 5% CO2 atmosphere in DMEM medium supplemented with 10% foetal calf serum were treated with compound 28 concentration ranges of 0-100 μM. Compound 28 was added into the medium from the 100 mM stock solution in DMSO. Cells were harvested 12 hours after incubation with compound 28, centrifuged (1000 rpm, 4° C., 5 min), washed twice by ice-cold PBS and re-centrifuged. These washed cells were then lysed by 1×CSB (loading buffer for SDS-PAGE, i.e. electrophoresis of proteins in polyacrylamide gel containing SDS). Cell lysate proteins were separated by SDS-PAGE and transferred onto a nitrocelulose (NC) membrane. NC membrane was blocked by 5% skimmed milk, 0.1% Tween 20 in PBS. Protein level of p21^WAF-1 and actin (as a loaded protein volume control) were detected immunochemically using commercially available specific monoclonal antibodies anti-p21^WAF-1 (Ab-1, Calbiochem) and anti-Actin (Clone AC-40, Sigma-Aldrich). The primary antibodies bind to target proteins were detected using rabbit secondary peroxidase-labeled antibody (RAM-Px, DAKO), followed by chemiluminiscence (ECL, Amersham-Pharmacia).
structure (smiles),measurement,setting,value
"O=P(O)(O)OC[C@H]1O[C@@H](n2cnc3c(NCc4ccccc4O)ncnc32)[C@H](O)[C@@H]1O [Compound 21, 6-(2-hydroxybenzylamino)purine riboside-5′-monophosphate]",DNA fragmentation (apoptotic sub-G1 fraction),Leukemia cell line CEM,induction of DNA fragmentation
same,activity of caspase-3,caspase-3,activates caspase-3
same,body weight of treated animals,P388D1 leukemia,only slight reduction
same,tolerability in animals,P388D1 leukemia,good tolerability
same,mean survival time,"P388D1 leukemia; Days 1-3 and 7-9, vehicle group 13.9 days",15.4 days
same,"survival analysis (Kaplan-Meier, log-rank)",P388D1 leukemia; P=0.0409 versus vehicle,significantly better survival
same,Human lymphocytes ED50,Human lymphocytes,6.7 µM
"COc1cccc(CNc2ncnc3c2ncn3[C@@H]2O[C@H](COP(=O)(O)O)[C@@H](O)[C@H]2O)c1O [Compound 28, 6-(2-hydroxy-3-methoxybenzylamino)purine riboside-5′-monophosphate]",p21^WAF-1 protein induction,p21^WAF-1,efficient p21^WAF-1 protein induction
same,Human lymphocytes ED50,Human lymphocytes,1.2 µM
